From PubChem BioAssay (NCI)
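Cultured in 96-well plates, cells were exposed to test compound for 48 hours across five concentrations. TGI denotes the concentration required for complete inhibition of growth.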

Tests used:
Test in all cases: inhibition of tumour cell growth, NCI panel, 48 h
ACHN renal = system: ACHN renal
CAKI-1 renal = system: CAKI-1 renal
OVCAR-4 ovarian = system: OVCAR-4 ovarian
HCT-15 colon = system: HCT-15 colon
SNB-75 CNS = system: SNB-75 CNS
SF-295 CNS = system: SF-295 CNS
OVCAR-5 ovarian = system: OVCAR-5 ovarian
MDA-MB-231 breast = system: MDA-MB-231 breast
KM12 colon = system: KM12 colon
MOLT-4 leukemia = system: MOLT-4 leukemia
SR leukemia = system: SR leukemia
TK-10 renal = system: TK-10 renal
U251 CNS = system: U251 CNS
SNB-19 CNS = system: SNB-19 CNS
K-562 leukemia = system: K-562 leukemia
HL-60(TB) leukemia = system: HL-60(TB) leukemia
NCI-H226 lung = system: NCI-H226 lung
SK-OV-3 ovarian = system: SK-OV-3 ovarian
M14 melanoma = system: M14 melanoma
A549 NSCLC = system: A549 NSCLC
SF-539 CNS = system: SF-539 CNS
UACC-257 melanoma = system: UACC-257 melanoma
SN12C renal = system: SN12C renal
HCT-116 colon = system: HCT-116 colon
SF-268 CNS = system: SF-268 CNS
SK-MEL-28 melanoma = system: SK-MEL-28 melanoma
OVCAR-3 ovarian = system: OVCAR-3 ovarian
COLO 205 colon = system: COLO 205 colon
UO-31 renal = system: UO-31 renal
RPMI-8226 leukemia = system: RPMI-8226 leukemia
NCI/ADR-RES ovarian = system: NCI/ADR-RES ovarian
T-47D breast = system: T-47D breast
IGROV1 ovarian = system: IGROV1 ovarian
HCC-2998 colon = system: HCC-2998 colon
NCI-H23 lung = system: NCI-H23 lung
MCF7 breast = system: MCF7 breast
786-0 renal = system: 786-0 renal
DU-145 prostate = system: DU-145 prostate
SK-MEL-5 melanoma = system: SK-MEL-5 melanoma
EKVX NSCLC = system: EKVX NSCLC
BT-549 breast = system: BT-549 breast
LOX IMVI melanoma = system: LOX IMVI melanoma
A498 renal = system: A498 renal
HOP-62 NSCLC = system: HOP-62 NSCLC
MALME-3M melanoma = system: MALME-3M melanoma
CCRF-CEM leukemia = system: CCRF-CEM leukemia
UACC-62 melanoma = system: UACC-62 melanoma
SW-620 colon = system: SW-620 colon
MDA-MB-435 = system: MDA-MB-435
HS 578T breast = system: HS 578T breast
HT29 colon = system: HT29 colon
SK-MEL-2 melanoma = system: SK-MEL-2 melanoma
NCI-H522 lung = system: NCI-H522 lung
NCI-H460 lung = system: NCI-H460 lung

`c1ccc2nc3c(nc2c1)sc1ccccc13` showed a TGI (ACHN renal) of 35.7 µM, a TGI (CAKI-1 renal) of 30.2 µM and a TGI (OVCAR-4 ovarian) of 32.9 µM. The TGI (HCT-15 colon) was > 100 µM, the TGI (SNB-75 CNS) was 62.8 µM and the TGI (SF-295 CNS) was > 100 µM. For the same compound, the TGI (OVCAR-5 ovarian) was > 100 µM, the TGI (MDA-MB-231 breast) was > 100 µM and the TGI (KM12 colon) was > 100 µM. For the same compound, the TGI (MOLT-4 leukemia) was > 100 µM, the TGI (SR leukemia) was > 100 µM and the TGI (TK-10 renal) was 39.3 µM. The TGI (U251 CNS) was 34.1 µM, the TGI (SNB-19 CNS) was 42.2 µM and the TGI (K-562 leukemia) was > 100 µM. For the same compound, the TGI (HL-60(TB) leukemia) was > 100 µM, the TGI (NCI-H226 lung) was 66.8 µM and the TGI (SK-OV-3 ovarian) was 29.5 µM. The TGI (M14 melanoma) was > 100 µM, the TGI (A549 NSCLC) was > 100 µM and the TGI (SF-539 CNS) was 30.9 µM. For the same compound, the TGI (UACC-257 melanoma) was > 100 µM, the TGI (SN12C renal) was > 100 µM and the TGI (HCT-116 colon) was > 100 µM. For the same compound, the TGI (SF-268 CNS) was 46.1 µM, the TGI (SK-MEL-28 melanoma) was > 100 µM and the TGI (OVCAR-3 ovarian) was > 100 µM. The TGI (COLO 205 colon) was > 100 µM, the TGI (UO-31 renal) was > 100 µM and the TGI (RPMI-8226 leukemia) was > 100 µM. For the same compound, the TGI (NCI/ADR-RES ovarian) was > 100 µM, the TGI (T-47D breast) was > 100 µM and the TGI (IGROV1 ovarian) was 51 µM. The TGI (HCC-2998 colon) was > 100 µM, the TGI (NCI-H23 lung) was 71.1 µM and the TGI (MCF7 breast) was > 100 µM. The TGI (786-0 renal) was 64.2 µM, the TGI (DU-145 prostate) was > 100 µM and the TGI (SK-MEL-5 melanoma) was > 100 µM. For the same compound, the TGI (EKVX NSCLC) was 96.2 µM, the TGI (BT-549 breast) was > 100 µM and the TGI (LOX IMVI melanoma) was > 100 µM. The TGI (A498 renal) was 78.2 µM, the TGI (HOP-62 NSCLC) was 73.6 µM and the TGI (MALME-3M melanoma) was > 100 µM. The TGI (CCRF-CEM leukemia) was > 100 µM, the TGI (UACC-62 melanoma) was 79.3 µM and the TGI (SW-620 colon) was > 100 µM. For the same compound, the TGI (MDA-MB-435) was > 100 µM, the TGI (HS 578T breast) was > 100 µM and the TGI (HT29 colon) was > 100 µM. The TGI (SK-MEL-2 melanoma) was > 100 µM, the TGI (NCI-H522 lung) was > 100 µM and the TGI (NCI-H460 lung) was 43.6 µM.
